Laboratory results taken from PubChem BioAssay (NCI).
Values joined by “and” are separate entries in the source; they are usually repeats but may differ in a detail not shown here. Equal entries are not always repeated.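 48-hour exposure; five concentrations; linearly interpolated endpoints. GI50 marks 50% less growth. TGI denotes the concentration required for complete inhibition of growth.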

Experiments:
Experiment in all cases: DTP human tumour cell line panel, 48 h
MDA-MB-435 = system: MDA-MB-435
U251 CNS = system: U251 CNS
HOP-92 NSCLC = system: HOP-92 NSCLC
OVCAR-4 ovarian = system: OVCAR-4 ovarian
UACC-257 melanoma = system: UACC-257 melanoma
LOX IMVI melanoma = system: LOX IMVI melanoma
RPMI-8226 leukemia = system: RPMI-8226 leukemia
OVCAR-5 ovarian = system: OVCAR-5 ovarian
M14 melanoma = system: M14 melanoma
UACC-62 melanoma = system: UACC-62 melanoma

Row | SMILES | TGI (MDA-MB-435) | TGI (U251 CNS) | TGI (HOP-92 NSCLC) | TGI (OVCAR-4 ovarian) | TGI (UACC-257 melanoma) | TGI (LOX IMVI melanoma) | TGI (RPMI-8226 leukemia) | TGI (OVCAR-5 ovarian) | TGI (M14 melanoma) | TGI (UACC-62 melanoma) | GI50 (UACC-257 melanoma)
1 | COc1cc(/C=C/C(=O)O)ccc1O | > 100 µM | > 100 µM | > 100 µM | > 100 µM | > 100 µM | > 100 µM | > 100 µM | > 100 µM | > 100 µM |  | 
2 | c1ccc2c(Cc3c[nH]c4ccccc34)c[nH]c2c1 | 31.3 µM | 37.2 µM | 35.6 µM | 35.3 µM | 34.5 µM | 49.8 µM | 68.8 µM | 29.4 µM | 34.1 µM | > 100 µM | 
3 | O=[N+]([O-])c1cccc2nc3ccccc3c(NCCNCCO)c12 | 0.0278 µM and 0.014 µM | 0.0467 µM and 0.0298 µM | 0.0237 µM | 0.0162 µM | 0.034 µM and 0.0325 µM | 0.0184 µM and 0.112 µM | 0.0602 µM and 0.0646 µM | 0.088 µM and 0.0672 µM | 0.0236 µM and 0.0101 µM | 0.0315 µM and 0.0174 µM | 0.0126 µM
4 | CCOC(=O)CC[C@@H](NC(=O)c1ccc(NCc2ccc3nc(OC)c(OC)nc3c2)cc1)C(=O)OCC | 99.2 µM | > 100 µM | 36.2 µM | > 100 µM | 31.4 µM | > 100 µM | > 100 µM | > 100 µM | 32 µM | 32 µM | 
5 | CC(=O)O/C(=C(/C#N)C(=O)O)C1C(C(=O)O)C(c2ccccc2[N+](=O)[O-])C=C(c2ccco2)N1c1ccncc1 (stereo unspecified) | 15.7 µM | 4.89 µM | 35.1 µM | 37.4 µM | 12 µM | 5.78 µM | 4.46 µM | 27.4 µM | 9.33 µM | 17 µM | 
6 | CC1(C)OC[C@@]2([C@@H]3CC[C@@H](C3)C2(C)C)N1O | > 100 µM | > 100 µM | > 100 µM | > 100 µM | > 100 µM | > 100 µM | > 100 µM | > 100 µM | > 100 µM | > 100 µM | 
7 | CCOC(=O)C1(Cc2ccccc2)CCN(C(=O)c2ccccc2)C2C1C2(Cl)Cl (stereo unspecified) | 48.3 µM | 32.6 µM | 55.6 µM | > 100 µM | 36.3 µM | 34.5 µM | 38.2 µM | 98.4 µM | 34.6 µM | 27.2 µM | 
8 | COc1ncc(C#CC(=O)c2ccccc2OC)c(OC)n1 | 8.44 µM | 8.33 µM | 4.47 µM | 20.7 µM | 8.79 µM | 0.794 µM | 9.65 µM | 8.23 µM | 5.05 µM | 7.49 µM | 
9 | OCCCN(CCc1ccc(Cl)c(Cl)c1)CCN1CCCC1 | 53.4 µM | > 100 µM | > 100 µM | > 100 µM | 36 µM | > 100 µM | 70.6 µM | > 100 µM | 32.9 µM | 31.5 µM | 
10 | O=C(COC(=O)c1ccccc1)c1ccc(Br)cc1 | 20.4 µM | 27.3 µM | 30.5 µM |  | 28.8 µM | 11.2 µM | 16.9 µM | 22.8 µM | 31 µM | 26.1 µM | 
11 | CC(C)(C)OC(=O)/C=C/C(=O)O/C=C/[N+](=O)[O-] | > 100 µM | > 100 µM | > 100 µM |  | > 100 µM | > 100 µM | > 100 µM | > 100 µM | > 100 µM | > 100 µM | 
12 | CCOC(=O)c1cc2cc(CSc3ccccc3)ccc2oc1=O | > 100 µM | > 100 µM | > 100 µM | > 100 µM | > 100 µM | > 100 µM | > 100 µM | > 100 µM | > 100 µM | > 100 µM | 
13 | O=C(/C(Cl)=C/c1ccccc1)c1ccccc1 | 9.52 µM | > 40.1 µM | 12.9 µM | 16.9 µM | 19.3 µM | 8.8 µM | > 46.2 µM | 19.8 µM | 4.98 µM | 22.9 µM | 
14 | O=[N+]([O-])C(=C/C1CCCCC1)/C(=C\C1CCCCC1)[N+](=O)[O-] | 20.4 µM | 14.7 µM | 20.2 µM | 40.1 µM | 23.5 µM | 4.94 µM | 5.4 µM | 38.8 µM | 22.3 µM | 17.6 µM | 
15 | C(/C=N/NC1=NCCN1)=N\NC1=NCCN1 | > 100 µM | > 100 µM | > 100 µM | > 100 µM | > 100 µM | > 100 µM | > 100 µM | > 100 µM | > 100 µM | > 100 µM | 
16 | C=CCC1(O)c2cccc(O)c2C(=O)c2cccc(O)c21 (stereo unspecified) | 50.8 µM | 45.5 µM | 42.3 µM | > 100 µM | 38.7 µM | 30.9 µM | 76.1 µM | > 100 µM | 32 µM |  | 
17 | CCO[C@H]1C[C@@H](c2ccccc2)[C@]2(C)C[C@H](C(=O)OC)ON2O1 | > 100 µM | > 100 µM | > 100 µM | > 100 µM | > 100 µM | > 100 µM | > 100 µM | > 100 µM | > 100 µM | > 100 µM | 
18 | C/C=C/[C@@H]1O[C@H](CC#C[Si](C)(C)C)[C@@]2(C=O)C(C)=CC[C@H](C(C)C)[C@@H]12 | 42.5 µM | 34.4 µM | 41.4 µM | 51.7 µM | 32.5 µM | 18.2 µM | 52.2 µM | 40.2 µM | 37.2 µM | 32.6 µM | 
19 | O=S(=O)(NC(c1ccccc1)(c1cc2ccccc2[nH]1)c1cc2ccccc2n1S(=O)(=O)c1ccccc1)c1ccccc1 (stereo unspecified) | > 100 µM | > 100 µM | > 100 µM | > 100 µM | > 100 µM | > 100 µM | > 100 µM | > 100 µM | > 100 µM | > 100 µM | 
20 | N#C[C@](CO)(NC(=O)OCc1ccccc1)C(F)F | > 100 µM | > 100 µM | > 100 µM | > 100 µM | > 100 µM | > 100 µM | > 100 µM | > 100 µM | > 100 µM | > 100 µM | 
21 | COC(=O)c1ccc(NCC2=CC(=O)c3ccccc3C2=O)cc1 | 30.3 µM | 63 µM | 12.3 µM | 29.1 µM | 29.4 µM | 23.3 µM | > 26.5 µM | 49.5 µM | 37.1 µM | 27.6 µM | 
22 | COC(=O)[C@H]1ON2O[C@@H](O[C@H]3CCCC[C@@H]3C(C)(C)c3ccccc3)C[C@@H]3CC[C@H]1[C@@]32C | > 100 µM | > 100 µM | > 100 µM |  | > 100 µM | > 100 µM | > 100 µM | > 100 µM | > 100 µM | > 100 µM | 
